Experimental data: patent US8614203B2, “Methods for the treatment of a central nervous system injury via a tapered administration protocol” (Emory University, priority 2005, dated 2013)

What was measured:
Type in all cases: in vivo, Sprague-Dawley rats
[1] = test system: p53; experiment: Example 4: Western blotting densitometry, p53; conditions: all progesterone-treated animals (AW and TW); two weeks post-withdrawal
Source text: 60 male Sprague-Dawley rats weighing 290-310 g at the time of injury were used in this experiment. Food and water were provided ad libidum before and after surgery. Animals were handled and weighed daily from their arrival, seven days pre-surgery, to brain extraction three weeks post-surgery. Animals were handled in squads of 12, with n=10 per experimental condition. All animal procedures were approved by the Emory University Animal Care and Use Committee, Protocol #131-2002.
Isofluorane anesthesia was induced for four minutes and 45 seconds at 5% and maintained at 2.5%. Normal body temperature was maintained with a surgical heating pad placed beneath the sterile dressings. The scalp incision area was shaved and sterilized with iodine and isopropanol. A midline incision was made along the scalp and the fascia cleared to expose the surface of the skull. Medial, lateral, and dorsal stereotaxic coordinates were determined at bregma, and a 5-7 mm diameter bilateral craniotomy was performed mid-sagitally, 3 mm anterior to bregma. […] Sutures were used to close the incision after bleeding ceased. […]
Brains for protein analysis were sectioned into the immediate area of the lesion and snap frozen in 2-methyl-butane chilled on dry ice. […] The amount of brain homogenate needed to standardize samples to 2 μg/μL for Western blotting was calculated from the results of these assays. […]

[2] = test system: bilateral contusions of the medial prefrontal cortex; experiment: Example 1: bilateral sensory neglect (BSN) task after TBI; conditions: 4 mg/kg, 3 days (LP3); 6 and 20 days post injury
Protocol: (§1) Male Sprague-Dawley rats (300 g) were housed individually in wire cages and kept on a reverse light-dark cycle (0800-2000 h). […] All procedures involving animals conformed to guidelines set forth in the Guide for the Care and Use of Laboratory Animals (U.S. Department of Health and Human Services, Pub no. 85-23, 1985) and were approved by the Emory University Institutional Animal Care and Use Committee.
Bilateral contusions of the medial prefrontal cortex were created by a pneumatic impactor device as previously described. Briefly, rats were given anesthetized with ketamine/xylazine (90 mg/kg; 10 mg/kg) and placed in a stereotaxic apparatus. […]
Experienced individuals who were blind to treatment conditions of the study conducted all histological and behavioral analyses. All data were tested for normality and homoschedasticity before being analyzed by parametric analysis of variance (ANOVA). MWM results were analyzed using separate mixed-factorial (4 groups×5 days) analysis of variance (ANOVA) on each of the two 5-day testing periods (acquisition and retention respectively). Results of the BSN task were analyzed using the mixed-factorial ANOVA (4 groups×2 post-injury trials). […]
Measures of attentional abilities, using a bilateral sensory neglect (BSN) task, were recorded one day prior to surgery (baseline) and on postsurgical days 6 and 20. […]

[3] = test system: bilateral contusions of the medial prefrontal cortex; experiment: Example 1: necrotic cavity, lateral ventricle and striatal area measurements after TBI (Nissl/thionine histology); conditions: 4 mg/kg in peanut oil, 21 days after surgery
Protocol: as §1
Bilateral contusions of the medial prefrontal cortex were created by a pneumatic impactor device as previously described. Briefly, rats were given anesthetized with ketamine/xylazine (90 mg/kg; 10 mg/kg) and placed in a stereotaxic apparatus. A craniectomy (diameter 6 mm) was made over the midline of the prefrontal cortex with its center 1.5 mm AP to bregma. After removal of the bone, the tip of the impactor (diameter 5 mm) was moved to +3.0 mm AP; 1.0 mm ML (from bregma), and checked for adequate clearance. Trauma was produced by pneumatically activating the piston to impact −2.0 mm DV (from dura) at a velocity of 3 m/s with a brain contact time of 0.5 seconds.
Control animals received injections of vehicle at similar time-points. Animals were coded with regard to surgery and treatment to prevent experimenter bias during behavioral testing and histological examination.
Twenty-one days after surgery, animals were perfused with 100 ml 0.1 M phosphate-buffered saline (PBS; pH 7.4) followed by 400 ml 4% paraformaldehyde in 0.1 M phosphate buffer (PB; pH 7.4). Following cryoprotection in 30% sucrose, coronal 40-μm-thick sections were cut on a freezing microtome, immediately mounted on gel-coated slides and stained for Nissl with thionine to determine placement and extent of the injury.
Mean area measurements of lesion size were quantified from sections at 15 rostral-caudal levels spaced 300 μm apart. […] Perimeters of the striatum and the lateral ventricles were also traced and mean areas were quantified from 7 rostral-caudal levels (300 μm apart).
Experienced individuals who were blind to treatment conditions of the study conducted all histological and behavioral analyses. All data were tested for normality and homoschedasticity before being analyzed by parametric analysis of variance (ANOVA). MWM results were analyzed using separate mixed-factorial (4 groups×5 days) analysis of variance (ANOVA) on each of the two 5-day testing periods (acquisition and retention respectively). Results of the BSN task were analyzed using the mixed-factorial ANOVA (4 groups×2 post-injury trials). […] Pearson r coefficients were calculated to determine whether significant correlations could be detected between histological (e.g., lesion size and cellular density) and behavioral parameters (e.g., acquisition and retention of the MWM task and measures of sensory neglect).

CC(=O)[C@H]1CC[C@H]2[C@@H]3CCC4=CC(=O)CC[C@]4(C)[C@H]3CC[C@]12C [progesterone, pregn-4-ene-3,20-dione]
p53 levels (long-term marker of apoptosis) [1]: p53 levels indistinguishable from vehicle shams | BSN task performance (latency to remove adhesive stimuli) [2]: impaired on this task compared to control animals at both 6 and 20 days post injury | enlargement of the lateral ventricles ([3]; 3 or 5 days): did not have any effect on this measure | mean striatal area ([3]; 3 or 5 days): No between-group differences | necrotic cavity size ([3]; 3 days (LP3), vs injured animals): tended to be smaller than in the brains of injured animals | necrotic cavity formation ([3]; 5 days (LP5), vs vehicle-injected injured animals): significant reductions in overall necrotic cavity formation
